We go through 1 compound from US8629240B2, “Peptide ligands for clusterin and uses thereof” (National Research Council of Canada, priority 2009, dated 2014).

Experiment [1] addresses T1, extracellular domain of the Type II TGF-beta receptor (Homo sapiens, UniProt P37173).
T1 construct: the extracellular domain of the Type II TGF-beta receptor
In words: SPR specificity test with Type II TGF-beta receptor extracellular domain. The format is binding. The note with it: receptor 38 nM to 4.5 μM over immobilized peptide. Here is the method: (§1) The specificity of the clusterin-peptide interactions was investigated using SPR biosensor analysis and proteins unrelated to clusterin. Immobilization of the peptides and other proteins on the sensor chips and the SPR experiments were conducted as described in Example 4.
FIG. 8 presents SPR biosensor sensorgrams showing the interaction of the extracellular domain of the Type II TGF-beta receptor (38 nM to 4.5 μM) with immobilized P3378 (500 RUs) (FIG. 8A) or P3375 (1200 RUs) (FIG. 8B).

The subject of another experiment is 4T1 tumor. In words: In vivo blocking experiment with excess unlabeled peptide. Details: species or system mouse. The conditions noted are these: 5 μmoles unlabeled peptide with 25 nmoles P3378-DL680, 15 min post-injection. Here is the method: To further validate the specificity of the in vivo targeting ability of the P3378-DL680 probe, a blocking experiment using an excess of unlabeled P3378 peptide was carried out. Mice received 25 nmoles of P3378-DL680 alone (n=1) or in combination with 5 μmoles unlabeled P3378 or P3378R peptide (both n=2) in 100 μL sterile saline. Animals in the control groups received 25 nmoles of P3378-DL680 with or without 5 μmoles of the unlabeled scrambled P3378R peptide, whereas the experimental animals were injected with 25 nmoles of P3378-DL680 in combination with 5 μmoles of unlabeled P3378 peptide. […] Furthermore, using the gated NIRF lifetime and the OptiView 3D reconstruction module we selected in each mouse the slice along the Z-axis that contained the highest concentration of P3378-DL680 and determined its relative concentration.

In experiment [2] the target is T2, epidermal growth factor ectodomain (EGFR-ED) (Homo sapiens, UniProt P00533).
T2 construct: the epidermal growth factor ectodomain (EGFR-ED)
T2 sequence (P00533 25-645 limits assumed): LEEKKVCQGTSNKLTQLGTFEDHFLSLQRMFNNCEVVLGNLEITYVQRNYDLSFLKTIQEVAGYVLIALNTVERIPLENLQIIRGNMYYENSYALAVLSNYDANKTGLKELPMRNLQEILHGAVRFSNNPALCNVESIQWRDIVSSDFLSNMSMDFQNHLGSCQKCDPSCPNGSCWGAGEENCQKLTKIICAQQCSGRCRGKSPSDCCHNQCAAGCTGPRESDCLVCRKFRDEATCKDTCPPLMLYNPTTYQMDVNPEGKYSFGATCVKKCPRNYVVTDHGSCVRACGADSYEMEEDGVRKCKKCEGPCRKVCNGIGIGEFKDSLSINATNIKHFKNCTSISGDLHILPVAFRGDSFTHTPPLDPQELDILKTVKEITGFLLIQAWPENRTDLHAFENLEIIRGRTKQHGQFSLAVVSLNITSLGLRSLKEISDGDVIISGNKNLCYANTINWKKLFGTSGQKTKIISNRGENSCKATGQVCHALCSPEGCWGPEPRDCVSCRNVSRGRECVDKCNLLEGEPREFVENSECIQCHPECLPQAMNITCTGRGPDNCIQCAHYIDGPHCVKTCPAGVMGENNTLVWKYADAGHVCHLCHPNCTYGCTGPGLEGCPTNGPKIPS
As to the kind of experiment: SPR specificity test with EGFR ectodomain. The conditions noted are these: EGFR-ED 70 nM to 5.63 μM over immobilized peptide. The class given is binding. Here is the method:
as §1

The target in a further experiment is T3, rh-clusterin (Homo sapiens, UniProt P10909).
T3 construct: made in house; host or cells: HEK-293 cells
T3 sequence (P10909 23-227 limits assumed): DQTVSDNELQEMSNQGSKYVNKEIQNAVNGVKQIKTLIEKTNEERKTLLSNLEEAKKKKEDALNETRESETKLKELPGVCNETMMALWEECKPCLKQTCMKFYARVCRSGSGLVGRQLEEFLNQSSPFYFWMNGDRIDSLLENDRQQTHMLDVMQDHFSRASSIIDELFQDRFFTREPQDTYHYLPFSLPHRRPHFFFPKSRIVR
T3 sequence (P10909 228-449 limits assumed): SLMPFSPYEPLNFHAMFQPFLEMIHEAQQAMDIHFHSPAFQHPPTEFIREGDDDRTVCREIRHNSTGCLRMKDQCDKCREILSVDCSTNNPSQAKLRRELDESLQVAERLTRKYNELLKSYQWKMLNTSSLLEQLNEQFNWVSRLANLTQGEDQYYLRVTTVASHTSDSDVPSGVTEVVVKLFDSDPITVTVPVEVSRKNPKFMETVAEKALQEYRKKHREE
In words: STD-NMR binding of synthetic peptides to rh-clusterin. The note with it: ~1:30 protein:peptide, 298K. Here is the method:
To confirm direct binding of the peptides of Example 1 to clusterin, the interaction of the synthetic peptides of Example 2 with clusterin was tested using Nuclear Magnetic Resonance Saturation Transfer Difference (STD-NMR; Mayer & Meyer, 2001)
NMR samples were prepared by dissolving 0.15 mM of peptides in 50 mM sodium phosphate buffer, 0.2 mM EDTA, pH 6.5. rh-clusterin (˜1 mg/ml) in 5 mM sodium phosphate buffer, 0.02 mM EDTA, pH 7.4, was added to ˜1:30 protein:peptide ratio.
All NMR experiments were performed at 298K on a Bruker Avance800™ NMR spectrometer equipped with a 5 mm triple-resonance probe with three-axis gradients. Saturation transfer difference (STD) spectra was recorded using WATERGATE version of STD pulse sequence (35) with a 3 s selective saturation pulse applied in the relaxation delay and a 20 ms spinlock pulse with a field strength of 12.25 kHz. The saturation pulse was implemented using a pulse train of 49 ms Gaussian-shaped selective pulse and 1 ms interpulse delay. Each Gaussian-shaped pulse had 1000 points with a 1% truncation and was applied with a field strength of 75.9 Hz. STD spectra were recorded with a spectral width of 16025.64 Hz and 32 K data points. Time domain signals were accumulated with 1024 and 4096 scans for the free and complexed sample, respectively. NMR data were processed using Bruker Xwinnmr 2.6. An exponential weighting function of 7 Hz was applied prior to Fourier transformation and polynomial baseline correction.
NMR signals of peptide P3378 and rh-clusterin were severely overlapped, making it impossible to apply the above saturation pulse exclusively on rh-clusterin resonances without disturbing those of the peptide. In order to identify the binding interactions in the P3378-rh-clusterin complex, a new experimental scheme was implemented by applying the on-resonance saturation pulse at methyl resonances (0.912 ppm) and the off-resonance irradiation at −7.799 ppm (referenced H2O to 4.700 ppm). […]

T1 sequence (P37173 23-166 limits assumed): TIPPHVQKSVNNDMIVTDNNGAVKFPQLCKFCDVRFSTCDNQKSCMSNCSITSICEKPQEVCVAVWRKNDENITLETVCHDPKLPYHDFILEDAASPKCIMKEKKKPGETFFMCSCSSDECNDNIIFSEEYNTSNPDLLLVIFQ

Take `CC(C)C[C@H](NC(=O)[C@@H]1CCCN1C(=O)[C@@H](N)Cc1c[nH]cn1)C(=O)N[C@@H](CO)C(=O)N[C@@H](CCCCN)C(=O)N[C@@H](Cc1c[nH]cn1)C(=O)N1CCC[C@H]1C(=O)N[C@@H](Cc1ccc(O)cc1)C(=O)N[C@@H](Cc1c[nH]c2ccccc12)C(=O)N[C@@H](CO)C(=O)N[C@@H](CCC(N)=O)C(=O)N1CCC[C@H]1C(=O)N[C@@H](CO)C(=O)NCC(=O)N[C@@H](CO)C(=O)NCC(=O)N[C@@H](CS)C(=O)O` [P3378]: the “interaction with Type II TGF-beta receptor” value in experiment [1] is reported as “no significant signal was observed”. The “blocking of uptake of P3378-DL680 into the tumor by unlabeled peptide” value in the experiment on 4T1 tumor is recorded as “successfully blocked uptake”. For the same compound, in experiment [2], the “binding to EGFR-ED” value was “do not bind specifically”. Also, at rh-clusterin, the “binding to clusterin by STD-NMR” value was “direct interaction”.
